# Source: patent US20230322715A1, “BROAD SPECTRUM ANTI-CANCER COMPOUNDS” (The Regents of the University of California, priority 2019, published 2023)
# Several values for one entry are separate records, joined by “and”; a condition that tells them apart may be missing. Equal entries are not always repeated. Where two headings read alike, the source gives them in different places.
# How the values were obtained:
# [1] = biological target: FTO (Homo sapiens (Human), UniProt Q9C0B1); test: Fluorescence enzymatic inhibition assay (m6A7-Broccoli RNA / DFHBI-1T) against FTO; format: biochemical
# Method: In order to determine their efficacy as FTO inhibitors, the compounds were screened by a fluorescence enzymatic inhibition assay developed previously by the Jaffrey lab.^44 Briefly, a nonfluorescent methylated RNA substrate termed “m6A7-Broccoli” is incubated with FTO in the presence of 2-oxoglutarate (300 μM), (NH4)2Fe(SO4)2·6H2O (300 μM), and L-ascorbate (2 mM) for 2 hours at room temperature in reaction buffer (50 mM NaHEPES, pH 6).
# (§1) Inhibitors were added in concentrations ranging from 0.008-40 μM; all inhibitors were dissolved in DMSO and added to a final concentration of 0.2% DMSO. […] After incubation at room temperature for 2 hours, the plates were left at 4° C. overnight (16 hours) to allow DFHBI-1T to bind to A7-Broccoli RNA. […] Sigmoidal dose-response curves were fitted in GraphPad Prism 6. All assays were performed in triplicate, with additional repetitions added as necessary.
# [2] = biological target: ALKBH5 (Homo sapiens (Human), UniProt Q6P6C2); test: Fluorescence enzymatic inhibition assay (m6A7-Broccoli RNA / DFHBI-1T) against ALKBH5; format: biochemical
# Method: as §1
# [3] = elogD / log D determination
# [4] = ALK series, permeability data and IC50 tables, read-out: Enzymatic IC50 ALKBH5
# [5] = Table 700 compounds, read-out: Enzymatic IC50 ALKBH5
# [6] = Table 700 compounds, read-out: Enzymatic IC50 FTO
# [7] = m6A7-Broccoli fluorescence assay, 0.250 μM ALKBH5, read-out: Enzymatic IC50 ALKBH5
# [8] = Table 800 compounds, read-out: ALKBH5 IC50
# [9] = Table 800 compounds, read-out: FTO IC50
# [10] = m6A7-Broccoli fluorescence assay, 0.250 μM FTO, inhibitor up to 40 μM, triplicate, read-out: Enzymatic IC50 FTO
# Chain of FTO (Q9C0B1 whole entry): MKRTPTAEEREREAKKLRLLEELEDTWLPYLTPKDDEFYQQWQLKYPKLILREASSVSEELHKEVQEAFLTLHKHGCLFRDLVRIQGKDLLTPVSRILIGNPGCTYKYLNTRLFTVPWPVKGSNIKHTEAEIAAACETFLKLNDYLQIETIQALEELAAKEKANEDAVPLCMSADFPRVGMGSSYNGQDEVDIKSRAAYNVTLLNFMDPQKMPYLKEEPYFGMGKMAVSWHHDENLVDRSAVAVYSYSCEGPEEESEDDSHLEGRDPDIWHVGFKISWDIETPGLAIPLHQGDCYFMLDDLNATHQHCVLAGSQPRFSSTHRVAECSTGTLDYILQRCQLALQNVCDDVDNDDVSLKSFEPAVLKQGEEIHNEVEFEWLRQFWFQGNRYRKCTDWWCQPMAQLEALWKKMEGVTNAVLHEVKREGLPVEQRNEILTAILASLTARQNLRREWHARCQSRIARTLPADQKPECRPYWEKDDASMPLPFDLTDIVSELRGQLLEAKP
# Chain of ALKBH5 (Q6P6C2 whole entry): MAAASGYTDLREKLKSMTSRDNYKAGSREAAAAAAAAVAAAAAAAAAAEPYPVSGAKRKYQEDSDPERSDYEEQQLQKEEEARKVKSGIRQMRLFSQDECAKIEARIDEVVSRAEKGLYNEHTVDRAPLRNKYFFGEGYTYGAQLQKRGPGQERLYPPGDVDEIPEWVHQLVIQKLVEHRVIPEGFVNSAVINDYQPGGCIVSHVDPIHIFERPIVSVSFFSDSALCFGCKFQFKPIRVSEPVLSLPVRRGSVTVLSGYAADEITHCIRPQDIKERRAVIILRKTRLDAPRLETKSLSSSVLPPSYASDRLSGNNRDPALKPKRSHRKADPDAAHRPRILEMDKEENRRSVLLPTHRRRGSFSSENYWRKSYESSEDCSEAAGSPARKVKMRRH
structure (smiles),measurement,setting,value
COc1ccccc1C(=O)N1CC(Oc2ccccc2)CC1C(=O)Nc1ccc(C(C)=O)cc1 (centres unmarked) [TR-FTO 2-05],IC50,[1]; read-out: Enzymatic IC50 FTO,8.31 ± 2.07 µM
COC(=O)C1COC(c2cc(C(C)(C)C)ccc2O)N1 (centres unmarked) [ALK-19],IC50,[2]; [4],24 ± 4.2 µM
CC1(C)S[C@@H]2[C@H](N)C(=O)N2[C@H]1C(=O)O [ALK-07],IC50,[2]; [5],10 ± 2.8 µM
same,IC50,[1]; [6],> 40 µM
same,elogD,[3]; Table 700 compounds,0.95
Fc1ccc2[nH]cc(CNCC3(N4CCC(F)C4)COC3)c2c1 (centres unmarked) [TR-FTO-45],IC50,[2]; [7],30.5 µM
same,elogD,[3],1.03
c1cc2c(cc1CNCC1(N3CCCC3)COC1)OCCO2 [TR-FTO-27],IC50,[2]; [7],5.9 µM
same,elogD,[3],0.55
CC(C)(C)OC(=O)N1CCC(F)(C2NCCS2)C1 (centres unmarked) [ALK-02],IC50,[2]; [5],16.6 µM
same,IC50,[1]; [6],> 40 µM
same,elogD,[3]; Table 700 compounds,1.40
CCN(CC)c1ccc(C2NC(C(=O)OC)CS2)c(O)c1 (centres unmarked) [ALK-30],IC50,[2]; [5],1.4 ± 0.4 µM
same,IC50,[1]; [6],> 40 µM
same,elogD,[3]; Table 700 compounds,0.67
O=S(=O)(Nc1ccccc1N1CCCCC1)c1ccc(OC(F)(F)F)cc1 [TR-ALKBH5-36],IC50,[2]; [8],0.4 µM
same,IC50,[1]; [9],23.2 µM
same,elogD,[3]; Table 800 compounds,1.13
Fc1cccc2c(CNCC3(N4CCCC4)COC3)c[nH]c12 [TR-FTO-16],IC50,[2]; [7],0.87 µM
same,IC50,[1]; [10],2.2 µM
Cc1ccc(NS(=O)(=O)c2ccc(OC(F)(F)F)cc2)cc1C [TR-ALKBH5-34],IC50,[2]; [8],23.3 µM
same,IC50,[1]; [9],> 40 µM
same,elogD,[3]; Table 800 compounds,0.60
O=C(C1CC1)N1CCN(S(=O)(=O)c2ccc(OC(F)(F)F)cc2)CC1 [TR-ALKBH5-41],chromatographic logD,[3],0.79
Fc1ccc2c(CNCC3(N4CCC(F)C4)COC3)c[nH]c2c1 (centres unmarked) [TR-FTO-44],chromatographic logD,[3],0.95
COc1ccccc1C(=O)N1CC(Oc2ccccc2)CC1C(=O)NCc1ccccn1 (centres unmarked) [TR-FTO 2-06],IC50,[1]; read-out: Enzymatic IC50 FTO,12.5 ± 2.7 µM
COc1ccccc1C(=O)N1CC(Oc2ccccc2)CC1C(=O)Nc1ccc(C)c(C)c1 (centres unmarked) [TR-FTO 2-02],IC50,[1]; read-out: Enzymatic IC50 FTO,0.19 ± 0.03 µM
Cc1ccc2[nH]cc(CNCC3(N4CCCC4)COC3)c2c1 [TR-FTO-09],IC50,[2]; [7],> 40 µM
O=S(=O)(Nc1ccc(Cl)c(C(F)(F)F)c1)c1ccc(OC(F)(F)F)cc1 [TR-ALKBH5-25],IC50,[2]; [8],1.6 µM
same,IC50,[1]; [9],> 40 µM
same,elogD,[3]; Table 800 compounds,1.50
COc1ccc(CNC(=O)C2CC(Oc3ccccc3)CN2C(=O)c2ccccc2OC)cc1 (centres unmarked) [TR-FTO 2-03],IC50,[1]; read-out: Enzymatic IC50 FTO,1.24 ± 0.65 µM
Fc1cccc2[nH]cc(CNCC3(N4CCCC4)COC3)c12 [TR-FTO-17],IC50,[2]; [7],2.5 µM
same,IC50,[1]; [10],1.3 µM
Cc1ccc2c(CNCC3(N4CCCC4)COC3)c[nH]c2c1 [TR-FTO-42],IC50,[2]; [7],13.4 µM
same,IC50,[1]; [10],3 µM
COC(=O)C1COC(c2ccc(OC)c(Cl)c2)N1 (centres unmarked) [ALK-23],IC50,[2]; [5],2.8 ± 0.5 µM
same,IC50,[1]; [6],> 40 µM
same,elogD,[3]; Table 700 compounds,3.01
O=S(=O)(Nc1ccc(Cl)c(Cl)c1)c1ccc(OC(F)(F)F)cc1 [TR-ALKBH5-33],elogD,[3]; Table 800 compounds,1.24
FC1CCN(C2(CNCc3ccc(-c4ccccc4)o3)COC2)C1 (centres unmarked) [TR-FTO-48],IC50,[2]; [7],2.6 µM
same,IC50,[1]; [10],2 µM
same,elogD,[3],1.34
CC(=O)c1ccc(S(=O)(=O)NCC2CCCOC2)cc1 (centres unmarked) [TR-ALKBH5-05],IC50,[2]; [8],1.9 µM
same,IC50,[1]; [9],> 40 µM
same,elogD,[3]; Table 800 compounds,1.12
O=S(=O)(Nc1ccc(F)c(Cl)c1)c1ccc(OC(F)(F)F)cc1 [TR-ALKBH5-38],IC50,[2]; [8],1.9 µM
same,IC50,[1]; [9],27.6 µM
same,elogD,[3]; Table 800 compounds,2.58
CCOC(=O)C1CC1C1NCCS1 (centres unmarked) [ALK-01],IC50,[2]; [5],17.5 µM
same,IC50,[1]; [6],103 µM and > 40 µM
same,elogD,[3]; Table 700 compounds,0.58
O=S(=O)(Nc1nccnc1O)c1ccc(OC(F)(F)F)cc1 [TR-ALKBH5-31],IC50,[2]; [8],13.7 µM
same,IC50,[1]; [9],> 40 µM
same,elogD,[3]; Table 800 compounds,2.33
C[C@]1(Cn2ccnn2)C(C(=O)O)N2C(=O)C[C@H]2S1(=O)=O (some centres unmarked) [ALK-08],IC50,[2]; [5],9.9 ± 1.3 µM
same,IC50,[1]; [6],> 40 µM
same,elogD,[3]; Table 700 compounds,0.36
Fc1ccc2[nH]cc(CNCC3(N4CCCC4)COC3)c2c1 [TR-FTO-11],IC50,[2]; [7],6.6 µM
O=C(O)N1CCC(F)(C2NCCS2)C1 (centres unmarked) [ALK-03],IC50,[2]; [5],> 40 µM
same,IC50,[1]; [6],> 40 µM
same,elogD,[3]; Table 700 compounds,0.62
COC(=O)C1COC(c2ccc(OC)cc2O)N1 (centres unmarked) [ALK-17],IC50,[2]; [4],18.2 µM
c1ccc(-c2ccc(CNCC3(N4CCCC4)COC3)s2)cc1 [TR-FTO-38],IC50,[2]; [7],3.4 µM
same,elogD,[3],1.57
